Experimental data taken from PubChem BioAssay AID1259407 (Chemical Carcinogenesis Research Information System (CCRIS), 2018).
The source made the active and inactive calls. No rule for the calls is given here.

System: CCRIS mutagenicity, Ames/micronucleus/aberration tests
Assay: CCRIS mutagenicity studies
[1] = Test System: AMES SALMONELLA TYPHIMURIUM, Strain/Indicator: TA98, Metabolic Activation: NONE, Method: PREINCUBATION
[2] = Test System: AMES SALMONELLA TYPHIMURIUM, Strain/Indicator: TA100, Metabolic Activation: NONE, Method: PREINCUBATION
[3] = Test System: AMES SALMONELLA TYPHIMURIUM, Strain/Indicator: TA98, Metabolic Activation: NONE, Method: STANDARD PLATE
[4] = Test System: AMES SALMONELLA TYPHIMURIUM, Strain/Indicator: TA100, Metabolic Activation: NONE, Method: STANDARD PLATE

O=C1C(Cl)=C(Cl)C(=O)C(Cl)=C1Cl
mutagenic call (End Point: In vitro chromosomal aberrations, Test System: Chinese hamster lung (CHL/IU) cells, Metabolic Activation: Rat, Liver, S9, Phenobarbital and 5,6-benzoflavone): active; positive (structural changes and ploidy)
mutagenic call [1]: inactive; negative
mutagenic call [2]: inactive; negative
mutagenic call (Test System: AMES SALMONELLA TYPHIMURIUM, Strain/Indicator: TA100, Metabolic Activation: RAT, LIVER, S-9, PHENOBARBITAL AND 5,6-BENZOFLAVONE, Method: PREINCUBATION): active; positive
mutagenic call (Test System: AMES SALMONELLA TYPHIMURIUM, Strain/Indicator: TA102, Metabolic Activation: NONE, Method: PREINCUBATION): inactive; negative
mutagenic call (Test System: AMES SALMONELLA TYPHIMURIUM, Strain/Indicator: TA102, Metabolic Activation: RAT, LIVER, S-9, PHENOBARBITAL AND 5,6-BENZOFLAVONE, Method: PREINCUBATION): inactive; negative
mutagenic call (Test System: AMES SALMONELLA TYPHIMURIUM, Strain/Indicator: TA2637, Metabolic Activation: NONE, Method: PREINCUBATION): inactive; negative
mutagenic call (Test System: AMES SALMONELLA TYPHIMURIUM, Strain/Indicator: TA2637, Metabolic Activation: RAT, LIVER, S-9, PHENOBARBITAL AND 5,6-BENZOFLAVONE, Method: PREINCUBATION): inactive; negative
mutagenic call (Test System: Ames Salmonella typhimurium, Strain/Indicator: TA98, Metabolic Activation: None, Method: Preincubation): inactive; negative
mutagenic call (Test System: Ames Salmonella typhimurium, Strain/Indicator: TA98, Metabolic Activation: Rat, Liver, S9, Sodium phenobarbital and 5,6-benzoflavone (10%), Method: Preincubation): inactive; negative
mutagenic call (Test System: Ames Salmonella typhimurium, Strain/Indicator: TA100, Metabolic Activation: None, Method: Preincubation): inactive; negative
mutagenic call (Test System: Ames Salmonella typhimurium, Strain/Indicator: TA100, Metabolic Activation: Rat, Liver, S9, Sodium phenobarbital and 5,6-benzoflavone (10%), Method: Preincubation): active; positive
mutagenic call (Test System: Ames Salmonella typhimurium, Strain/Indicator: TA1535, Metabolic Activation: None, Method: Preincubation): inactive; negative
mutagenic call (Test System: Ames Salmonella typhimurium, Strain/Indicator: TA1535, Metabolic Activation: Rat, Liver, S9, Sodium phenobarbital and 5,6-benzoflavone (10%), Method: Preincubation): inactive; negative
mutagenic call (Test System: Ames Salmonella typhimurium, Strain/Indicator: TA1537, Metabolic Activation: None, Method: Preincubation): inactive; negative
mutagenic call (Test System: Ames Salmonella typhimurium, Strain/Indicator: TA1537, Metabolic Activation: Rat, Liver, S9, Sodium phenobarbital and 5,6-benzoflavone (10%), Method: Preincubation): inactive; negative
mutagenic call (Test System: E. coli, Strain/Indicator: WP2uvrA/pKM101, Metabolic Activation: None, Method: Preincubation): inactive; negative
mutagenic call (Test System: E. coli, Strain/Indicator: WP2uvrA/pKM101, Metabolic Activation: Rat, Liver, S9, Sodium Phenobarbital and 5,6-benzoflavone, Method: Preincubation): inactive; negative

CN(C)c1ccc(N=Nc2cccnc2)cc1
mutagenic call [3]: inactive; negative
mutagenic call (Test System: AMES SALMONELLA TYPHIMURIUM, Strain/Indicator: TA98, Metabolic Activation: RAT, LIVER, S-9, AROCLOR 1254, Method: STANDARD PLATE): inactive; negative
mutagenic call [4]: inactive; negative
mutagenic call (Test System: AMES SALMONELLA TYPHIMURIUM, Strain/Indicator: TA100, Metabolic Activation: RAT, LIVER, S-9, AROCLOR 1254, Method: STANDARD PLATE): inactive; negative
mutagenic call (Test System: AMES SALMONELLA TYPHIMURIUM, Strain/Indicator: TA1535, Metabolic Activation: NONE, Method: STANDARD PLATE): inactive; negative
mutagenic call (Test System: AMES SALMONELLA TYPHIMURIUM, Strain/Indicator: TA1535, Metabolic Activation: RAT, LIVER, S-9, AROCLOR 1254, Method: STANDARD PLATE): inactive; negative
mutagenic call (Test System: AMES SALMONELLA TYPHIMURIUM, Strain/Indicator: TA1537, Metabolic Activation: NONE, Method: STANDARD PLATE): inactive; negative
mutagenic call (Test System: AMES SALMONELLA TYPHIMURIUM, Strain/Indicator: TA1537, Metabolic Activation: RAT, LIVER, S-9, AROCLOR 1254, Method: STANDARD PLATE): inactive; negative
mutagenic call (Test System: AMES SALMONELLA TYPHIMURIUM, Strain/Indicator: TA1538, Metabolic Activation: NONE, Method: STANDARD PLATE): inactive; negative
mutagenic call (Test System: AMES SALMONELLA TYPHIMURIUM, Strain/Indicator: TA1538, Metabolic Activation: RAT, LIVER, S-9, AROCLOR 1254, Method: STANDARD PLATE): inactive; negative

CC(C)(Oc1ccc(C2CC2(Cl)Cl)cc1)C(=O)O (centres undefined)
mutagenic call (Test System: AMES SALMONELLA TYPHIMURIUM, Strain/Indicator: TA98, Metabolic Activation: NONE): inactive; negative
mutagenic call (Test System: AMES SALMONELLA TYPHIMURIUM, Strain/Indicator: TA98, Metabolic Activation: RAT, LIVER, S-9, AROCLOR 1254): inactive; negative
mutagenic call (Test System: AMES SALMONELLA TYPHIMURIUM, Strain/Indicator: TA102, Metabolic Activation: NONE): inactive; negative
mutagenic call (Test System: AMES SALMONELLA TYPHIMURIUM, Strain/Indicator: TA102, Metabolic Activation: RAT, LIVER, S-9, AROCLOR 1254): inactive; negative
mutagenic call (Test System: AMES SALMONELLA TYPHIMURIUM, Strain/Indicator: TA104, Metabolic Activation: NONE): inactive; negative
mutagenic call (Test System: AMES SALMONELLA TYPHIMURIUM, Strain/Indicator: TA104, Metabolic Activation: RAT, LIVER, S-9, AROCLOR 1254): inactive; negative
mutagenic call (Test System: UDS RAT HEPATOCYTES, Strain/Indicator: BROMODEOXYURIDINE INCORP, Metabolic Activation: NONE, Method: FLOW CYTOMETRIC ANALYSIS): inactive; negative
mutagenic call (Test System: UDS RAT HEPATOCYTES, Strain/Indicator: THY INCORP, Metabolic Activation: NONE, Method: AUTORADIOGRAPHY): inactive; negative
mutagenic call (Test System: UDS RAT HEPATOCYTES, Strain/Indicator: THY INCORP, Metabolic Activation: NONE, Method: LIQUID SCINTILLATION COUNTING): inactive; negative

[Cl][Pt][Cl].c1cc2c3c(c1)CCCN3CCC2
mutagenic call (Test System: AMES SALMONELLA TYPHIMURIUM, Strain/Indicator: TA92, Metabolic Activation: NONE, Method: STANDARD PLATE): inactive; negative
mutagenic call [3]: inactive; negative
mutagenic call [4]: inactive; negative
mutagenic call (Test System: AMES SALMONELLA TYPHIMURIUM, Strain/Indicator: TA2410, Metabolic Activation: NONE, Method: STANDARD PLATE): inactive; negative
mutagenic call (Test System: E. COLI, Strain/Indicator: TM6, Metabolic Activation: NONE, Method: STANDARD PLATE): inactive; negative
mutagenic call (Test System: E. COLI, Strain/Indicator: TM9, Metabolic Activation: NONE, Method: STANDARD PLATE): active; positive

C=C(C)[C@@]12OC3(c4ccccc4)O[C@@H]1[C@@H]1[C@@H]4OC4(CO)[C@@H](O)[C@]4(O)C(=O)C(C)=C[C@H]4[C@@]1(O3)[C@H](C)[C@H]2OC(=O)/C=C/C=C/c1ccccc1 (some centres undefined)
mutagenic call (Test System: AMES SALMONELLA TYPHIMURIUM, Strain/Indicator: TA97, Metabolic Activation: HAMSTER, LIVER, S-9, AROCLOR 1254 (10 OR 30%), Method: PREINCUBATION): inactive; negative
mutagenic call (Test System: AMES SALMONELLA TYPHIMURIUM, Strain/Indicator: TA97, Metabolic Activation: NONE, Method: PREINCUBATION): inactive; negative
mutagenic call (Test System: AMES SALMONELLA TYPHIMURIUM, Strain/Indicator: TA97, Metabolic Activation: RAT, LIVER, S-9, AROCLOR 1254 (10 OR 30%), Method: PREINCUBATION): inactive; negative
mutagenic call (Test System: AMES SALMONELLA TYPHIMURIUM, Strain/Indicator: TA98, Metabolic Activation: HAMSTER, LIVER, S-9, AROCLOR 1254 (10 OR 30%), Method: PREINCUBATION): inactive; negative
mutagenic call [1]: inactive; negative
mutagenic call (Test System: AMES SALMONELLA TYPHIMURIUM, Strain/Indicator: TA98, Metabolic Activation: RAT, LIVER, S-9, AROCLOR 1254 (10 OR 30%), Method: PREINCUBATION): inactive; negative
mutagenic call (Test System: AMES SALMONELLA TYPHIMURIUM, Strain/Indicator: TA100, Metabolic Activation: HAMSTER, LIVER, S-9, AROCLOR 1254 (10 OR 30%), Method: PREINCUBATION): inactive; negative
mutagenic call [2]: inactive; negative
mutagenic call (Test System: AMES SALMONELLA TYPHIMURIUM, Strain/Indicator: TA100, Metabolic Activation: RAT, LIVER, S-9, AROCLOR 1254 (10 OR 30%), Method: PREINCUBATION): inactive; negative
mutagenic call (Test System: AMES SALMONELLA TYPHIMURIUM, Strain/Indicator: TA1535, Metabolic Activation: HAMSTER, LIVER, S-9, AROCLOR 1254 (10 OR 30%), Method: PREINCUBATION): inactive; negative
mutagenic call (Test System: AMES SALMONELLA TYPHIMURIUM, Strain/Indicator: TA1535, Metabolic Activation: NONE, Method: PREINCUBATION): inactive; negative
mutagenic call (Test System: AMES SALMONELLA TYPHIMURIUM, Strain/Indicator: TA1535, Metabolic Activation: RAT, LIVER, S-9, AROCLOR 1254 (10 OR 30%), Method: PREINCUBATION): inactive; negative

Nc1ncnc2c1ncn2[C@@H]1O[C@H](CO)C[C@H]1O
mutagenic call [3]: active; positive
mutagenic call (Test System: AMES SALMONELLA TYPHIMURIUM, Strain/Indicator: TA98, Metabolic Activation: RAT, LIVER, S-9, POLYCHLORINATED BIPHENYLS, Method: STANDARD PLATE): active; positive
mutagenic call [4]: active; positive
mutagenic call (Test System: AMES SALMONELLA TYPHIMURIUM, Strain/Indicator: TA100, Metabolic Activation: RAT, LIVER, S-9, POLYCHLORINATED BIPHENYLS, Method: STANDARD PLATE): active; positive
